Data from US20090286722A1 (priority 2005, published 2009).

Experiments:
dipeptidyl peptidase IV = dipeptidyl peptidase IV (Sus scrofa, UniProt P22411); assay: DPP IV degradation, % intact peptide by HPLC; type: in vitro ADME, porcine; settings: pig, purified porcine dipeptidyl peptidase IV (DPP IV), 37° C., pH 7.8
Procedure: (§1) HPLC peak area data were used to calculate the percentage intact peptide remaining at the various time points during the incubation.

[1] = target: purified porcine dipeptidyl peptidase IV (Sus scrofa, UniProt P22411); assay: DPP IV degradation, % intact peptide by HPLC; type: in vitro ADME; settings: 37° C., pH 7.8
purified porcine dipeptidyl peptidase IV, sequence (P22411 whole entry): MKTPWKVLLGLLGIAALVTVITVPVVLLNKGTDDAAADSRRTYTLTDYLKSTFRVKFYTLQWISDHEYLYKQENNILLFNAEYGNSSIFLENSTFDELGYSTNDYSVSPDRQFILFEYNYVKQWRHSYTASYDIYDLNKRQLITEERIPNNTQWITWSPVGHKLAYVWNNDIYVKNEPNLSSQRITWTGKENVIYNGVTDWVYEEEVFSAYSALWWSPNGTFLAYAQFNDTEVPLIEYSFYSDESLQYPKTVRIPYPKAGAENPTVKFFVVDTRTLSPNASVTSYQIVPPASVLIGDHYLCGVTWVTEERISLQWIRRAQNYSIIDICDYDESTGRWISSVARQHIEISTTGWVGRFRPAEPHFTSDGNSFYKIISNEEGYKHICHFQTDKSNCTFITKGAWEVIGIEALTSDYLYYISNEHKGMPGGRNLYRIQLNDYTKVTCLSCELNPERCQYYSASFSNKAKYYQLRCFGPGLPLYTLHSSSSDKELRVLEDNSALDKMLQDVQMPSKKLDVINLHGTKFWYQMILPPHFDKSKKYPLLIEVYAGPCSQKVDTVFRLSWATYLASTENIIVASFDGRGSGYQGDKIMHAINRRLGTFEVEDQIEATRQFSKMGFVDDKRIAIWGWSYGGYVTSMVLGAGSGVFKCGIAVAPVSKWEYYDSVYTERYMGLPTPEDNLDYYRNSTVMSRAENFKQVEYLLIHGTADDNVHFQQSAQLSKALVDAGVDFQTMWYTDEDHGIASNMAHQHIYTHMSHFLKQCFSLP
Procedure: as §1

ob/ob mice [2] = assay: 24 hour plasma glucose and insulin profile after a single dose in non-fasted ob/ob mice; type: in vivo
Excerpt: Dose of 12.5 nmol kg^−1 was chosen to evaluate the longer-term duration of action of a single dose of native or fatty acid derivatised GIP in non-fasted ob/ob mice.

ob/ob mice [3] = assay: Glucose tolerance 4 hours after peptide administration in 18 hour fasted ob/ob mice; type: in vivo; settings: 25 nmoles/kg, glucose 18 mmoles/kg
DPP IV = settings: cited: O'Harte 2002; Irwin 2005; cited from earlier work
ob/ob mice [4] = assay: Once daily i.p. injection for 14 days in ob/ob mice
Procedure: (§2) Obese diabetic (ob/ob) mice derived from the colony maintained at Aston University, UK (23) were used at 12-16 weeks of age. […] Drinking water and standard rodent maintenance diet (Trouw Nutrition, Cheshire, UK) were freely available.
(§3) Food intake and body weight were recorded daily from 5 days before commencement of the treatment regimes. Plasma glucose and insulin concentrations (10:00 h) were monitored at 2-4 day intervals. […] All acute tests were commenced at 10:00 h. […] Serum samples were taken for determination of glucagon concentrations. All other blood samples were collected from the cut tip of the tail vein of conscious mice into chilled fluoride/heparin coated glucose microcentrifuge tubes (Sarstedt, Nümbrecht, Germany) at the times indicated in the Figures. Blood samples were immediately centrifuged using a Beckman microcentrifuge (Beckman Instruments, Galway, Ireland) for 30 seconds at 13,000×g. The resulting plasma was then aliquoted into fresh tubes and stored at −20° C. prior to glucose and insulin determinations.

ob/ob mice [5] = assay: Acute glucose lowering and insulin release, peptide given i.p. with glucose to 18 hour fasted ob/ob mice
Procedure: as §2, §3

[6] = after 14 daily injections, glucose 18 mmoles/kg
[7] = after 14 days, glucose 18 mmoles/kg with native GIP
[8] = 25 nmol/kg i.p. with glucose 18 mmol/kg

dipeptidyl peptidase IV, sequence (P22411 whole entry): as above

Structure (SMILES): CCCCCCCCCCCCCCCC(=O)NCCCC[C@H](NC(=O)[C@H](Cc1c[nH]c2ccccc12)NC(=O)[C@H](CC(=O)O)NC(=O)[C@H](CC(N)=O)NC(=O)[C@H](CCCCN)NC(=O)[C@H](CCCCN)NC(=O)CNC(=O)[C@H](CCCCN)NC(=O)[C@H](CCC(N)=O)NC(=O)[C@H](C)NC(=O)[C@H](CC(C)C)NC(=O)[C@H](CC(C)C)NC(=O)[C@H](Cc1c[nH]c2ccccc12)NC(=O)[C@H](CC(N)=O)NC(=O)[C@@H](NC(=O)[C@H](Cc1ccccc1)NC(=O)[C@H](CC(=O)O)NC(=O)[C@H](CCC(N)=O)NC(=O)[C@H](CCC(N)=O)NC(=O)[C@H](Cc1c[nH]cn1)NC(=O)[C@@H](NC(=O)[C@H](CCCCN)NC(=O)[C@H](CC(=O)O)NC(=O)[C@H](CCSC)NC(=O)[C@H](C)NC(=O)[C@@H](NC(=O)[C@H](CO)NC(=O)[C@H](Cc1ccc(O)cc1)NC(=O)[C@H](CC(=O)O)NC(=O)[C@H](CO)NC(=O)[C@@H](NC(=O)[C@H](Cc1ccccc1)NC(=O)[C@@H](NC(=O)CNC(=O)[C@H](CCC(=O)O)NC(=O)[C@H](C)NC(=O)[C@@H](N)Cc1ccc(O)cc1)[C@@H](C)O)[C@@H](C)CC)[C@@H](C)CC)[C@@H](C)CC)C(C)C)C(=O)N[C@@H](Cc1c[nH]cn1)C(=O)N[C@@H](CC(N)=O)C(=O)N[C@H](C(=O)N[C@H](C(=O)N[C@@H](CCC(N)=O)C(=O)O)[C@@H](C)O)[C@@H](C)CC [GIP(LysPAL^37)]
- remaining at 2 h, 2 mM (dipeptidyl peptidase IV; 2 h incubation with DPP IV (5 mU), read-out: % Intact peptide remaining after time (h) 2): 100%
- remaining at 8 h, 2 mM (dipeptidyl peptidase IV; 8 h incubation with DPP IV (5 mU), read-out: % Intact peptide remaining after time (h) 8): 100%
- remaining at 24 h, 2 mM (dipeptidyl peptidase IV; 24 h incubation with DPP IV (5 mU), read-out: % Intact peptide remaining after time (h) 24): 100%
- % Intact peptide remaining after time (h) 0 ([1]; 0 h incubation with DPP IV (5 mU)): 100%
- % Intact peptide remaining after time (h) 24 ([1]; 24 h incubation with DPP IV (5 mU)): remained fully intact
- effect on plasma glucose over 24 hours (ob/ob mice [2]; single 12.5 nmol/kg i.p.): significant (P<0.01) and sustained decrease
- glucose concentrations at 24 hours and AUC values versus native GIP or saline treated controls (ob/ob mice [2]; single 12.5 nmol/kg i.p.): significantly less
- insulin concentrations from 4 to 24 hours versus controls (ob/ob mice [2]; single 12.5 nmol/kg i.p.): not significantly different
- time for which decline of plasma glucose was sustained after single injection (ob/ob mice [2]; single injection): at least 24 hours
- insulinotropic properties 4 hours after administration (ob/ob mice [3]): less evident
- reduction of glycaemic excursion following i.p. glucose 4 hours after administration (ob/ob mice [3]; versus saline): 18%
- resistance to DPP IV degradation (DPP IV): increased resistance to DPP IV degradation
- effect on body weight (ob/ob mice [4]; 25 nmoles/kg/day, 14 days): no effect
- effect on food intake (ob/ob mice [4]; 25 nmoles/kg/day, 14 days): no effect
- non-fasting plasma insulin concentrations (tendency towards elevated) (ob/ob mice [4]; 25 nmoles/kg/day, 14 days): did not achieve statistical significance
- non-fasting plasma glucose concentrations at 14 days versus control (ob/ob mice [4]; 25 nmoles/kg/day, day 14): significantly (p<0.05) lowered
- plasma glucagon on day 14 versus control (ob/ob mice [4]; 25 nmoles/kg/day, day 14): no differences observed
- islet area compared with saline-treated ob/ob mice (ob/ob mice [4]; after 14 daily injections): significant increases
- number of pancreatic islets compared with saline-treated ob/ob mice (ob/ob mice [4]; after 14 daily injections): significant increases
- pancreatic insulin content compared with saline-treated controls (ob/ob mice [4]; after 14 daily injections): did not affect
- pancreatic weight compared with saline-treated controls (ob/ob mice [4]; after 14 daily injections): did not affect
- insulinotropic response following i.p. glucose versus control (ob/ob mice [4]; [6]): augmented
- overall glycaemic excursion after i.p. glucose versus control (ob/ob mice [4]; [6]): significantly reduced
- plasma glucose response to 15 minutes feeding, at 15 minutes (ob/ob mice [4]; after 14 days, 18 hours fasted): significantly lowered
- plasma insulin response to 15 minutes feeding, at 15 minutes (ob/ob mice [4]; after 14 days, 18 hours fasted): significantly increased
- overall insulinotropic response to feeding (ob/ob mice [4]; after 14 days, 18 hours fasted, AUC 0-105 min): overall increased insulinotropic response
- hypoglycemic action of insulin (insulin sensitivity), AUC and post injection values versus controls (ob/ob mice [4]; after 14 days, insulin 50 U/kg i.p.): significantly augmented
- glycaemic excursions after glucose with native GIP compared to control animals (ob/ob mice [4]; [7]): significantly decreased
- overall glucose-dependent insulinotropic response to native GIP (ob/ob mice [4]; [7]): significantly augmented
- adverse effects following long-term administration (ob/ob mice [4]; long-term administration): No adverse effects were observed
- glucose AUC response compared to native GIP (ob/ob mice [5]; [8]): significant reduction
- plasma glucose concentrations and AUC (0-60 min) compared to glucose alone (ob/ob mice [5]; [8]): significantly reduced
- overall enhancement of insulin release over native GIP (ob/ob mice [5]; 25 nmol/kg i.p. with glucose, insulin AUC 0-60 min): 2.7 fold
